Data as given in patent US20100034766A1, “Malodor Counteracting Compositions” (Givaudan SA, priority 2006, published 2010).
Structures can show the parent of a compound that is named as a salt.

How the values were obtained:
[1] = Malodor reduction potential: headspace GC/MS determination of hexyl amine remaining; settings: for % Reduction of hexyl amine: 10 ul hexyl amine
Procedure: A 1 liter glass headspace collection jar had placed inside it a 25 ml stoppered glass container which contained 0.5 g of a test compound/mixture of compounds as indicated in Table 3. 10 ul of hexyl amine as a representative malodor was injected into the headspace jar. This was left for 15 minutes at 25° C. to equilibrate. One ml/minute of the headspace was drawn for one minute through a Tenax™ headspace trap. The trap was removed and analyzed to determine the initial concentration of the malodor. The glass stopper was removed from the container and the test component and the malodor were left in contact for 60 minutes at 25° C. One ml/minute of the headspace was drawn for one minute through a Tenax™ headspace trap to determine the amount of malodor remaining. The Tenax traps were thermally desorbed into an Agilent 6890 GC/MS to analyze the quantity of hexyl amine. The results are shown in Table 3 below: Following the same procedure described in Example 1, compounds according to formula (B) were mixed with an equal amount of citronellyl methylcrotonate. 0.5 g of the resulting mixture was tested against 10 ul hexyl amine as a representative malodor. Following the same procedure described in Example 1,5-(1-(3,3-dimethyl-cyclohexyl)ethoxy)-5-methylhexan-2-one (compound 10) was mixed with an equal amount of compounds of formula (A). 0.5 g of the resulting mixture was tested against 10 ul hexyl amine as a representative malodor.

[2] = Sensory test of axilla malodor reduction on cotton pads, expert panel, Labeled Magnitude Scale; settings: Example 4, Table 6; 0.4 g of 10% ethanol solution of test mixture on pad with 0.5 g of 1% synthetic axilla malodor; expert panel of 5, LMS
Procedure: Test mixtures of a compound of formula (A) and a compound of formula (B) in the ratio as given in Table 6 (10% ethanol solution) of each was prepared. 0.5 g of a 1% ethanol solution of synthetic axilla malodor was placed onto cotton pads. 0.4 g of the ethanol solution of the test mixtures, respectively, was placed on each axilla malodor treated cotton pad. One pad was left untreated as the control. Each pad was allowed to dry for 15 minutes. The test cotton pads were randomized, and an expert panel of 5 was used to determine the intensity of the malodor. Each panelist was asked to check a box that represented the strength of the axilla malodor using a Labeled Magnitude Scale (LMS) (Barry G. Green, Pamela Dalton, Beverly Cowart, Greg Shaffer, Krystyna Rankin and Jennifer Higgins. Evaluating the Labeled Magnitude Scale for Measuring Sensations of Taste and Smell. Chemical Senses. Vol. 21, pp 323-334, 1996).
The % reduction of malodor was calculated by:
% Reduction=(Mean LMS Control−Mean LMS Test)/Mean LMS Control
A Givaudan fragrance composition containing solvent dipropylene glycol at 20% (Composition A) and a fragrance composition (Composition B) wherein 10% dipropylene glycol are replaced by 10% of a mixture of compound 4 and geranyl:crotonate (1:9); were compared for MOC efficacy using the sensory test described in Example 4.

[3] = Example 1, Table 3, 0.5 g test compound/mixture, 60 minutes contact at 25° C., headspace
[4] = Example 3, Table 5, compound 10 mixed with equal amount of formula (A) compounds, 0.5 g

Row | SMILES | % Reduction of hexyl amine [1, 3] [%] | % Reduction of hexyl amine [1, 4] [%] | % Reduction of hexyl amine ([1]; Example 2, Table 4, formula (B) compounds mixed with equal amount of citronellyl methylcrotonate, 0.5 g) [%] | % Reduction of axilla malodor [2] [%] | effect on the effectiveness of the class A compound (hexyl amine reduction) ([1]; compound 4 in combination with a class A compound, Table 3)
1 | CCCCC(CC)COC(=O)C=Cc1ccc(OC)cc1 (stereo not drawn) [Octyl methyl cinnamate, 2-ethyl-hexyl-para-methoxy-cinnamate] | 54.1 | 58.7 |  |  | 
2 | O=C(C=Cc1ccccc1)OCc1ccccc1 [benzyl cinnamate] | 23.5 | 62.1 |  |  | 
3 | CC(C)=CCCC(C)CCOC(=O)C=C(C)C (stereo not drawn) [citronellyl methylcrotonate, 3,7-dimethyloct-6-enyl 3-methylbut-2-enoate] | 53.6 |  | 61.3 | 51.0 | 
4 | CC(OC(C)(C)COC(=O)C1CC1)C1CCCC(C)(C)C1 (stereo not drawn) [compound 4, cyclopropanecarboxylic acid 2-[1-(3,3-dimethylcyclohexyl)ethoxy]-2-methylpropyl ester] |  |  |  |  | significantly increases the effectiveness
5 | CCCCCCOC(=O)/C=C/C(=O)OCCCCCC [dihexyl fumarate] | 68.7 | 78.1 |  |  | 
6 | C/C=C/C(=O)OC/C=C(\C)CCC=C(C)C [geranyl crotonate] | 64.7 | 71.0 |  |  | 
